Columns and labels:
PRB = PRB protein levels by Western blot in endometriotic cells; assay type: cell-based
ERα/ERβ ratio = ERα/ERβ ratio of protein levels in endometriotic cells; assay type: cell-based; details: versus control and estradiol conditions
Hs832 cells = test: Wound (scratch) migration assay, Hs832 cells; assay type: cell-based; details: Hs832, estetrol 10^−6, any time point studied
Description: (§1) FIG. 1. Evaluation of apoptosis, cell viability and migration after treatments with E2 and E4 in endometriotic cells. (A) Western blot analysis against PARP and β-actin after 24 h incubation (B) MTS assay after 24 h incubation (C) Scratch assay.

PRA = PRA protein levels by Western blot in endometriotic cells
ER β = test: ERβ protein levels by Western blot in endometriotic cells; assay type: cell-based
11Z epithelial cells [1] = test: PARP cleavage rate (apoptosis), Western blot, 11Z cells; assay type: cell-based; details: 24 h incubation, most estetrol and estradiol concentrations
Description: (§2) FIG. 1. […] (A) Western blot analysis against PARP and β-actin after 24 h incubation (B) MTS assay after 24 h incubation (C) Scratch assay. […] The experiments were performed on 2 cell lines, Hs832, endometrial stromal cells and 11Z cells, endometrial epithelium cells.

11Z cells = test: Wound (scratch) migration assay, 11Z cells; assay type: cell-based; details: estetrol 10^−6, any time point studied
Description: as §1

Hs832 stromal cell line [2] = test: MTS cell viability assay, Hs832 cells; assay type: cell-based; details: 24 h, all estetrol concentrations tested
Description: as §1
(§3) To assess cell viability, the MTS assay was performed after 24 h.

[3] = test system: genes associated with the progesterone signaling pathway; test: PCR array for progesterone-regulated genes in Hs832 cells; assay type: cell-based; details: 24 h E4 (10^−6M) then 6h pulse with P4 (10^−7M), versus P4 without pre-treatment; for expression of PTGER2, NF1, MUC1, TWIST1 and SNAI1: change to a lesser extent
Description: FIG. 4. PCR Array Analysis for Progesterone-Regulated Genes in Endometrial Cells, Hs832 Cells. The expression of genes regulated by progesterone (P4) is compared, when incubating with P4 without previous treatment or with a 24 hour treatment with Estetrol.
Procedure: Hs832 endometriosis cells were incubated for 24 h with E4 (10^−6M) or vehicle (ethanol) as a control, then both cells received a 6h pulse with P4 (10^−7M) to then extract their messenger RNA in order to evaluate the levels. expression of 24 genes associated with the progesterone signaling pathway.

Hs832 stromal cell line [4] = test: PARP cleavage rate (apoptosis), Western blot, Hs832 cells; assay type: cell-based; details: 24 h incubation, almost all estetrol concentrations (except 108M)
Description: as §2

11Z epithelial cells [5] = test: MTS cell viability assay, 11Z cells; assay type: cell-based; details: 24 h, all estetrol concentrations tested
Description: as §1, §3

ERα = ERα protein levels by Western blot in endometriotic cells; assay type: cell-based; details: most of the concentrations used

## C[C@]12CC[C@@H]3c4ccc(O)cc4CC[C@H]3[C@@H]1[C@@H](O)[C@@H](O)[C@@H]2O [estetrol]
PRB; 11Z cells, estetrol, all concentrations used
  PRB protein levels over β-actin: more consistent increase
PRB; HsS32, estetrol 10^−6/10^−5M
  PRB protein levels over β-actin: more consistent increase
ERα/ERβ ratio; 11Z cells, estetrol 10^−7/10^−6/10^−5M
  ERα/ERβ ratio: significantly increases
ERα/ERβ ratio; Hs832 cells, estetrol 10^−9/10^−7M
  ERα/ERβ ratio: significantly increases
Hs832 cells
  migration (wound assay): showed no difference from the control
PRA; 11Z, estetrol 10^−9/10^−8M
  PRA protein levels over β-actin: increase
PRA; Hs832, estetrol 10^−5M
  PRA protein levels over β-actin: increase
PRA; HsS32, estetrol 10^−9/10^−7M
  PRA protein levels over β-actin: decreased
ER β; 11Z, estetrol, most concentrations used
  ER protein levels (ER β levels over β-actin, FIG. 2B): reduced levels
ER β; Hs832, estetrol, all conditions
  ER protein levels (ER β levels over β-actin, FIG. 2B): reduced levels
11Z epithelial cells [1]
  PARP cleavage rate (apoptosis): apoptosis was reduced
11Z cells
  migration (wound assay): showed no difference from the control
Hs832 stromal cell line [2]
  changes in cell viability compared to controls (MTS): None of the estetrol concentrations tested showed changes
[3]
  decrease of expression of FGF12, GCFC2, PWP1, ITGA6, ZEB1, POSTN and FKBP25: to a lesser extent
  expression of NFIX, GNRFI1, ESR1, MEF2D and I HH: stimulating the expression
  expression of PRL, SNAI2, RAD54L, HES1, ABCG2, TCF4: strongly decreasing
  expression of PTGER2, NF1, MUC1, TWIST1 and SNAI1: increase
[3]; listed as E4
  expression of PTGER2, NF1, MUC1, TWIST1 and SNAI1: increases
  expression of PRL, SNAI2, RAD54L, HES1, ABCG2, TCF4: strongly decreases
Hs832 stromal cell line [4]
  PARP cleavage rate (apoptosis): significant decrease
11Z epithelial cells [5]
  changes in cell viability compared to controls (MTS): None of the estetrol concentrations tested showed changes
ERα; 11Z, estetrol
  ERα levels over β-actin: robust increase
ERα; Hs832, estetrol
  ERα levels over β-actin: robust increase

Reference: patent publication US20240316064A1, “USE OF ESTRETOL AS A TREATMENT FOR ENDOMETRIOSIS” (UNIVERSIDAD BERNANDO O'HIGGINS, priority 2021, published 2024)
